Measurements published in US20230332103A1, “Methods and Compositions for Generating Human Forebrain Neural Progenitor Cells and for Maturation Thereof to Parvalbumin+ Interneurons” (Trailhead Biosystems Inc., priority 2021, published 2023).

Tests used:
[1] = tested on: stage 4 neural stem cells; assay: factor criticality analysis of stage 5 recipe; format: cell-based, human; conditions: FIG. 28-30
Method: To assess the impact of elimination of each validated factor, we again used dynamic profile analysis and compared the expression level of genes of interest in the absence of each finalized factor while others are present.
In the stage 5 recipe, each of seven finalized factors were removed while other factors were kept present and expression levels of PVALB and SST were assessed compared to the presence of all seven factors. […] 2-phospho-L-ascorbic acid, BDNF, IGF-1 were included in the stage 5 recipe (FIG. 28). […] Others were also found to increase the expression of somatostatin that was SST interneuron marker. So, they are excluded from the recipe and N2 was included in the stage 5 recipe (FIG. 29). […] Sodium pyruvate was included in the stage 5 recipe (FIG. 30).

[2] = tested on: stage 4 neural stem cells; assay: HD-DoE 8-factor experiment for stage 5 recipe (Forskolin, Arachidonic acid, VPA, BDNF, BT13, O-LPA, GW7646, Sodium pyruvate), optimized for PVALB; format: cell-based, human; conditions: for impact on expression of PVALB: dynamic profile analysis, FIG. 26
Method: To further guide the differentiation of forebrain-committed neural stem cells to PVALB interneuron cells, an additional HD-DoE experiment was performed for 3 days on cells that were treated with stage 1 to stage 4 media for total of 12 days prior to start of the experiment. This experiment included 8 effectors, Forskolin, Arachidonic acid, VPA, BDNF, BT13, O-LPA, GW7646, and Sodium pyruvate. In this model, we focused on maximum expression of PVALB gene expressed in PVALB (+) interneurons (Nahar et al. (2021) Front. Psych. 12:679960). When the model was optimized for maximum expression of PVALB, Forskolin, GW7646, Sodium Pyruvate had the highest factor contributions, 3.14, 27.2, and 17.1 respectively (FIG. 25).
So, it was excluded in the recipe.

## CC(=O)C(=O)[O-].[Na+] [Sodium pyruvate]
[1]
  contribution to expression of PVALB (Parvalbumin): contribute to PVALB expression
[2]
  impact on expression of PVALB: significant effect
[2]; listed as sodium pyruvate
  impact on expression of PVALB: positive impact
[2]; positive, model optimized for maximum expression of PVALB, FIG. 25
  factor contribution on expression of PVALB: 17.1
